{"source": "paper PMC3839116", "about": "(Bioorganic & medicinal chemistry, 2012)", "key": {"[1]": {"target": "T1, spASADH (Streptococcus pneumoniae, UniProt Q8DQ00)", "T1 sequence (Q8DQ00 1-358)": "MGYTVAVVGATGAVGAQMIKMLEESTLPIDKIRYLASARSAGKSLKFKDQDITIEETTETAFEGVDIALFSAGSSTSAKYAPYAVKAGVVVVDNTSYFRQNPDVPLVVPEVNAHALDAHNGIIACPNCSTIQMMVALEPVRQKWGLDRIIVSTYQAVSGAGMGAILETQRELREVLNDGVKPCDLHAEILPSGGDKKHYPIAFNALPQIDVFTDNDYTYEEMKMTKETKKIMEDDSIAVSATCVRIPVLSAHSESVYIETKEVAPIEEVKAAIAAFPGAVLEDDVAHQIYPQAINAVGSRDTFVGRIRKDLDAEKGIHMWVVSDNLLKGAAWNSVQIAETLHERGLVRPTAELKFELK", "experiment": "ASADH enzyme kinetic assay", "details": "for ligand efficiency: enzyme form not stated; for fold increase in binding affinity: relative to M11, M9: enzyme form not stated, M14: spASADH"}, "[2]": {"target": "T2, vcASADH (Vibrio cholerae serotype O1, UniProt Q9KQG2)", "T2 sequence (Q9KQG2 1-370)": "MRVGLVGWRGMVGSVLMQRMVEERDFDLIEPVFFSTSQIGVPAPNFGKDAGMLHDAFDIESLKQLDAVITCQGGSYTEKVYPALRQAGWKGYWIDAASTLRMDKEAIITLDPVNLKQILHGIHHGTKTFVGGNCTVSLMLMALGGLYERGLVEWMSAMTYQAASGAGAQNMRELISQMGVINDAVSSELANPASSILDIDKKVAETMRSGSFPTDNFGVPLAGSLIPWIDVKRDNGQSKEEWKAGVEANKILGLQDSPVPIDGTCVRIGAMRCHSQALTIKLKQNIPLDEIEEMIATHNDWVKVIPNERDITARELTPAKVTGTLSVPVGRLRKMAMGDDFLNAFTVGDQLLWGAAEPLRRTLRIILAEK", "experiment": "More thorough kinetic analysis, inhibitor varied against substrate ASA", "format": "biochemical", "details": "against the substrate ASA"}, "[3]": {"target": "T2, vcASADH", "experiment": "ASADH enzyme kinetic assay"}}}
{"compound": "O=C1NC(=O)c2cc([N+](=O)[O-])c(Cl)cc21", "note": "[Compound M9]", "values": [{"measurement": "ligand efficiency", "setting": "[1]", "value": 0.35, "unit": "kcal/mol/heavy atom"}, {"measurement": "fold increase in binding affinity", "setting": "[1]", "value": "~10", "unit": "fold"}, {"measurement": "inhibition type", "setting": "[2]", "value": "competitive inhibitors"}]}
{"compound": "COC(=O)c1ccc([N+](=O)[O-])cn1", "note": "[Compound M6m, 5-Nitropyridine-2-methylcarboxylate]", "values": [{"measurement": "Ki", "setting": "[3]", "value": "> 20", "unit": "mM"}]}
{"compound": "COC(=O)c1cc(C(=O)Nc2ccc([N+](=O)[O-])cc2)cc(C(=O)OC)c1", "note": "[Compound M17m, 5-[[(4-Nitrophenyl)amino]carbonyl]-1,3-benzenedimethylcarboxylate]", "values": [{"measurement": "Ki", "setting": "[3]", "value": "> 20", "unit": "mM"}]}
{"compound": "CCN1C(=O)c2ccc([N+](=O)[O-])cc2C1=O", "note": "[Compound M11e, 4-Nitro-N-ethylphthalimide]", "values": [{"measurement": "Ki", "setting": "[3]", "value": "> 4", "unit": "mM"}, {"measurement": "affinity for vcASADH (in words)", "setting": "[3]", "value": "no affinity"}, {"measurement": "affinity for spASADH (in words)", "setting": "[1]", "value": "no affinity"}]}
{"compound": "COC(=O)c1ccc(C(=O)OC)nc1", "note": "[Compound M7m, Pyridine-2,5-dimethylcarboxylate]", "values": [{"measurement": "Ki", "setting": "[3]", "value": "> 20", "unit": "mM"}]}
{"compound": "O=C(O)c1cc(C(=O)O)cc(C(=O)Nc2ccc([N+](=O)[O-])cc2)c1", "note": "[Compound M17]", "values": [{"measurement": "ligand efficiency", "setting": "[1]", "value": 0.22, "unit": "kcal/mol/heavy atom"}]}
{"compound": "Cn1c(=O)n(C)c2cc([N+](=O)[O-])ccc21", "note": "[Compound M14m, 4-Nitro-N,N-dimethylbenzimidazolinone]", "values": [{"measurement": "Ki", "setting": "[3]", "value": "0.13 ± 0.02", "unit": "mM"}, {"measurement": "inhibition type", "setting": "[2]", "value": "competitive inhibitors"}]}
{"compound": "O=C(O)c1ccc(C(=O)O)cc1", "note": "[1,4-benzenedicarboxylate, reference compound]", "values": [{"measurement": "affinity for vcASADH (in words)", "setting": "[3]", "value": "no affinity"}, {"measurement": "affinity for spASADH (in words)", "setting": "[1]", "value": "no affinity"}]}
{"compound": "O=c1[nH]c2ccc([N+](=O)[O-])cc2[nH]1", "note": "[Compound M14, 5-nitro-2-benzimidazolinone]", "values": [{"measurement": "fold increase in binding affinity", "setting": "[1]", "value": "~10", "unit": "fold"}]}
